Reference: patent US20240382564A1, “Methods and Compositions for Treating Muscular Dystrophy and Memory Impairment” (Allysta Pharmaceuticals, Inc., priority 2023, published 2024)
Where no end group is shown, it is not given here. [ ]: non-standard residue; d: D form. Nva = CCC[C@H](N)C(=O)O

Columns and labels:
[1] = test system: D2.mdx mice; assay: Fibre-type specific minimal Feret's diameter (muscle atrophy), myosin heavy chain immunofluorescence; format: in vivo, mouse
Description: (§1) D2.mdx mice were treated with ALY688 at two different dosages; high dose (HD; 15 mg/kg body weight/day) or low dose (LD; 3 mg/kg body weight/day) dissolved in saline. A separate group of mice were treated with saline alone (VEH, vehicle). Treatment was provided via subscapular subcutaneous injections from 7 days of age to 28-30 days. […] At 28-30 days of age, mice were anaesthetized with isoflurane vaporized in medical air (21% oxygen) at a 2 L/min flow rate. Due to tissue limitations in limb muscle, certain measures were performed separately in tibialis anterior and quadriceps across several phases of breeding. Following the treatment protocol, in situ quadriceps force assessments were then performed in one limb followed by removal of the quadriceps from the other limb for mitochondrial assessments, diaphragm for in vitro force assessments and finally other tissues for further processing as described below. Muscle and visceral organs weights were normalized to tibia length. Tissue collected from the first phase were utilized in force, histological, mitochondrial measures (respiration, mH2O2 and calcium retention capacity) and western analyses (diaphragm and quadriceps only). A second phase was then collected and utilized for cytokine profiling, qPCR analyses and additional westerns (TA only). Serum was collected from both phase 1 and 2 and utilized for serum CK analysis. All animals were utilized in in vivo functional assays (grip strength, cage hang time and voluntary wheel running).
Samples collected were cut into 8 µm thick serial cross sections with a cryostat (Thermo Fisher Scientific; Kalamazoo, MI, United States;) maintained at −20° C. on Fisherbrand Superfrost Plus slides (Thermo Fisher Scientific). Hematoxylin and eosin (H&E) and Masson's trichrome staining was used to assess muscle health and fibrosis. Centralized nuclei, a marker of regenerating fibres, was analyzed by selecting five evenly spaced images throughout the muscle and averaging the result. Areas of damage (fibres with fragmented sarcoplasm and immune cell infiltration) were expressed as a percentage of the entire muscle section. Images were taken using EVOS M7000 imager (Thermo Fisher Scientific) using 20× magnification and analyzed using ImageJ (http://imagej.nih.gov/ij/). To determine fibrotic area, skeletal muscle sections were stained with Masson's Trichrome (fibrotic regions stain blue for collagen) and expressed as a percentage of a region of interest, which included the entire muscle section with any artifacts removed. Sections were imaged Nikon 90i-eclipse microscope (Nikon Inc., Melville, NY) and analysed with the NIS Elements AR software (v4.6, Nikon). […] These images were then analyzed with ImageJ for minimal Feret's diameter as an index of muscle atrophy.

[2] = test system: D2.mdx mice; assay: Functional assays (grip strength, cage hang time, voluntary wheel running) and serum creatine kinase; format: in vivo, mouse
Description: as §1
Voluntary wheel running, cage hang time and forelimb grip strength were assessed two days before sacrifice. Serum derived from cardiac puncture at the time of sacrifice were assessed spectrofluorometrically for creatine kinase activity (U/L).

[dN]IP[Nva]LY[dS]FA[dS]-NH2 [ALY688]
atrophy in MHC I fibers (minimal feret diameter) ([1]; diaphragm, HD 15 mg/kg/day): completely prevented atrophy | minimal feret diameter, IIA fibers ([1]; diaphragm, HD, WT 24, VEH 20): 22 μm | minimal feret diameter, IIB fibers ([1]; diaphragm, HD, WT 26, VEH 23): 24 μm | minimal feret diameter in any fiber type ([1]; tibialis anterior, between the groups): no differences | serum creatine kinase ([2]; D2.mdx groups): 3.1-to-5.2 fold increase vs WT | grip strength, cage hang time and voluntary wheel running, comparison between D2.mdx groups ([2]; VEH, LD, HD): similar | grip strength, cage hang time and voluntary wheel running ([2]; all D2.mdx groups): −15.1% to −91.0 | serum creatine kinase ([2]; low dose vs other D2.mdx groups): increases seen with the low dose
